Experimental data: ChEMBL document CHEMBL5154740, “Novel Aurora A and Protein Kinase C (α, β1, β2, and θ) Multitarget Inhibitors: Impact of Selenium Atoms on the Potency and Selectivity” (J Med Chem, 2022)

Legend:
[1] = target: Mitogen-activated protein kinase 11 (Homo sapiens) (UniProt Q15759); assay: Inhibition of MAPK11 (unknown origin) at 50 nM by Z'LYTE screening method relative to control
[2] = target: RAC-alpha serine/threonine-protein kinase (Homo sapiens) (UniProt P31749); assay: Inhibition of AKT1 (unknown origin) at 50 nM by Z'LYTE screening method relative to control
[3] = target: Protein kinase C beta type (Homo sapiens) (UniProt P05771); assay: Inhibition of PKCbeta2 (unknown origin) at 50 nM by Z'LYTE screening method relative to control
[4] = target: T1, Protein kinase C zeta type (Homo sapiens) (UniProt Q05513); assay: Inhibition of PKCzeta (unknown origin) at 50 nM by Z'LYTE screening method relative to control
T1 sequence (whole entry): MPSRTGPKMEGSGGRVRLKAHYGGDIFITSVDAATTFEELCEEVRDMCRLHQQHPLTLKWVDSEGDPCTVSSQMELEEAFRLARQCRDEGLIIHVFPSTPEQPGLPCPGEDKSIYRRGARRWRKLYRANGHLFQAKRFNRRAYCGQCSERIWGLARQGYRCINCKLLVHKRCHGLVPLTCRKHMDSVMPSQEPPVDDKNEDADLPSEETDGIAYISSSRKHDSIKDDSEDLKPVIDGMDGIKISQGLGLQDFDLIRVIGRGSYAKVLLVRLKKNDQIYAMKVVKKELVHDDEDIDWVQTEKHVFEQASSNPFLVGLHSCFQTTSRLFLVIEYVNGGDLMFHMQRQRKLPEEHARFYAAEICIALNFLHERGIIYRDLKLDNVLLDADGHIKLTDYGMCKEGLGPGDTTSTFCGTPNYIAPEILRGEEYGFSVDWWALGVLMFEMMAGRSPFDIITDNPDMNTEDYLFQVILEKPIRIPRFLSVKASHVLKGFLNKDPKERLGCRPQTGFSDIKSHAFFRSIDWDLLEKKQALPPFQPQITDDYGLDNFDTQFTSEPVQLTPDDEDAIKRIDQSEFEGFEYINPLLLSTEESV

[5] = target: Tyrosine-protein kinase ABL1 (Homo sapiens) (UniProt P00519); assay: Inhibition of ABL1 (unknown origin) at 50 nM by Z'LYTE screening method relative to control
[6] = target: T2, Aurora kinase C (Homo sapiens) (UniProt Q9UQB9); assay: Inhibition of AURC (unknown origin) at 50 nM by Z'LYTE screening method relative to control
T2 sequence (whole entry): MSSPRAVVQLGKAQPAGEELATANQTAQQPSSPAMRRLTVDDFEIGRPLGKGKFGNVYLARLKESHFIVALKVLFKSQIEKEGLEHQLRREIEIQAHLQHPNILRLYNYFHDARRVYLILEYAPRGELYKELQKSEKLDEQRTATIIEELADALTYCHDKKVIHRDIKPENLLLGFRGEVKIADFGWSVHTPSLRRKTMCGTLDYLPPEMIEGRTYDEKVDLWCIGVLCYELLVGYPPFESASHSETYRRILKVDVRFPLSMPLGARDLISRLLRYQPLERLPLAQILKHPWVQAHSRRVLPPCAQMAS

[7] = target: Tyrosine-protein kinase Yes (Homo sapiens) (UniProt P07947); assay: Inhibition of YES1 (unknown origin) at 50 nM by Z'LYTE screening method relative to control
[8] = target: T3, Serine/threonine-protein kinase D3 (Homo sapiens) (UniProt O94806); assay: Inhibition of PKCnu (unknown origin) at 50 nM by Z'LYTE screening method relative to control
T3 sequence (whole entry): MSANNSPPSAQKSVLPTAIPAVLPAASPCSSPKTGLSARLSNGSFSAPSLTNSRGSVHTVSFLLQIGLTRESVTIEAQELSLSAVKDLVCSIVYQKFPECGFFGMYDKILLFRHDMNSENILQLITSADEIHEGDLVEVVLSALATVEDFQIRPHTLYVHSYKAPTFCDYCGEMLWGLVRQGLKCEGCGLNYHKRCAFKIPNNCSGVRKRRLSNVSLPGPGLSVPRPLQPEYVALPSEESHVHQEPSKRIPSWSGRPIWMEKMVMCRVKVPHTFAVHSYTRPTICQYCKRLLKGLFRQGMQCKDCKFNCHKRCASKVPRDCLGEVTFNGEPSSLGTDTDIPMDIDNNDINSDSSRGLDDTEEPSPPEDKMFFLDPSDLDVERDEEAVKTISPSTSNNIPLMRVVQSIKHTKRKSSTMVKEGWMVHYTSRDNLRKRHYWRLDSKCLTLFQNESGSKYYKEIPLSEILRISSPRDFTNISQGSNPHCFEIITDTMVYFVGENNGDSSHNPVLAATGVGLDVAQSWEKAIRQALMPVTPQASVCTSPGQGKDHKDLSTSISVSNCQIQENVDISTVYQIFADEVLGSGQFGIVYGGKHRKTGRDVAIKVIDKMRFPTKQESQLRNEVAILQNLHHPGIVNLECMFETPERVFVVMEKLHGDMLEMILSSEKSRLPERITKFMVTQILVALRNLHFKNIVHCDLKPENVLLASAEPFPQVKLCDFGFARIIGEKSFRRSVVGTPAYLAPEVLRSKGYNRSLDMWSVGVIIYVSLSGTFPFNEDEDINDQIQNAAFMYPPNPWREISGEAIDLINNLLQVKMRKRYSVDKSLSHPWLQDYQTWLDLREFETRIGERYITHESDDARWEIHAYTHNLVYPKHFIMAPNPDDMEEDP

[9] = target: Vascular endothelial growth factor receptor 1 (Homo sapiens) (UniProt P17948); assay: Inhibition of FLT1/VEGFR1(unknown origin) at 50 nM by Z'LYTE screening method relative to control
[10] = target: Protein kinase C alpha type (Homo sapiens) (UniProt P17252); assay: Inhibition of PKCalpha (unknown origin) at 50 nM by Z'LYTE screening method relative to control
[11] = target: ALK tyrosine kinase receptor (Homo sapiens) (UniProt Q9UM73); assay: Inhibition of ALK (unknown origin) at 50 nM by Z'LYTE screening method relative to control
Chain of ALK tyrosine kinase receptor (Homo sapiens) (Q9UM73 19-1620 limits assumed): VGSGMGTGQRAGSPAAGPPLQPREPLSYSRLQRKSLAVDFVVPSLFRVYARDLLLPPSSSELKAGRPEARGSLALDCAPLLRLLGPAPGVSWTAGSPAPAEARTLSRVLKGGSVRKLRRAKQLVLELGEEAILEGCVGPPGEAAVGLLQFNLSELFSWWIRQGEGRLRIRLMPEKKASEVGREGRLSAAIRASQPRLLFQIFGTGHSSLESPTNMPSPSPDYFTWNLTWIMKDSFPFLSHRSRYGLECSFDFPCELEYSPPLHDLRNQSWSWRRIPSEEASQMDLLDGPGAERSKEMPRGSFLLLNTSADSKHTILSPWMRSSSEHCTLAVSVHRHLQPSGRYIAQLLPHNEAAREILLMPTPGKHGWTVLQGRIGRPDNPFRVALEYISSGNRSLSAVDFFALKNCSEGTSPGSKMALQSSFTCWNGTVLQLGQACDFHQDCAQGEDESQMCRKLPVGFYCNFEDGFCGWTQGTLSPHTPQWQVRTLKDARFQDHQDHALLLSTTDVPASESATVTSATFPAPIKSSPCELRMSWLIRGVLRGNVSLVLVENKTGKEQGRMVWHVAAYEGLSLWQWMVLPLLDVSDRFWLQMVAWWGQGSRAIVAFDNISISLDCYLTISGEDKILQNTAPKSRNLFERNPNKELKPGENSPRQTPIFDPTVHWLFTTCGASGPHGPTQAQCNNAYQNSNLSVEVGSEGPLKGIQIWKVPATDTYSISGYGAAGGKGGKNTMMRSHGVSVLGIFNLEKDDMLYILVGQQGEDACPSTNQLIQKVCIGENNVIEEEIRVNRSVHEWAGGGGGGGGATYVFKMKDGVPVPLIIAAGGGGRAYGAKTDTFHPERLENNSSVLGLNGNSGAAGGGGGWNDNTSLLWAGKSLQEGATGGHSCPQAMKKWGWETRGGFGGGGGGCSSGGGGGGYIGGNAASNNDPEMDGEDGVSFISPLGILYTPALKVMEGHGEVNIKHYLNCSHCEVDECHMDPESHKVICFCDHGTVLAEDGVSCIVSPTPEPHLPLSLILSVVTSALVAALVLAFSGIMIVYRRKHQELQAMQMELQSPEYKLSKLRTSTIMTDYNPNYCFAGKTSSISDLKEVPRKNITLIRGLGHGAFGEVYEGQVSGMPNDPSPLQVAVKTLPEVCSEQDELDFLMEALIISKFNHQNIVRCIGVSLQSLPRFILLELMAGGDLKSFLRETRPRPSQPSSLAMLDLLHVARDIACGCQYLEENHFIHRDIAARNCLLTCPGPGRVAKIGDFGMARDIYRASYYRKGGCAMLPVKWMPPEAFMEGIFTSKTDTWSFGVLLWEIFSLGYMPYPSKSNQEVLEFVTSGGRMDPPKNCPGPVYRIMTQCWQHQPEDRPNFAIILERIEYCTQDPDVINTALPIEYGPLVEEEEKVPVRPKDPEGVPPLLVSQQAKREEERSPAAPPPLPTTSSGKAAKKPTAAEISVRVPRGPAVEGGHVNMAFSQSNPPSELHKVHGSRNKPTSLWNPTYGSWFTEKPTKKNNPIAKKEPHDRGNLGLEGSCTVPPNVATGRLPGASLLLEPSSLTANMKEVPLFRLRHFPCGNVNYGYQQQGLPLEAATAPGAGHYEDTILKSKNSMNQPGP

Chain of RAC-alpha serine/threonine-protein kinase (Homo sapiens) (P31749 whole entry): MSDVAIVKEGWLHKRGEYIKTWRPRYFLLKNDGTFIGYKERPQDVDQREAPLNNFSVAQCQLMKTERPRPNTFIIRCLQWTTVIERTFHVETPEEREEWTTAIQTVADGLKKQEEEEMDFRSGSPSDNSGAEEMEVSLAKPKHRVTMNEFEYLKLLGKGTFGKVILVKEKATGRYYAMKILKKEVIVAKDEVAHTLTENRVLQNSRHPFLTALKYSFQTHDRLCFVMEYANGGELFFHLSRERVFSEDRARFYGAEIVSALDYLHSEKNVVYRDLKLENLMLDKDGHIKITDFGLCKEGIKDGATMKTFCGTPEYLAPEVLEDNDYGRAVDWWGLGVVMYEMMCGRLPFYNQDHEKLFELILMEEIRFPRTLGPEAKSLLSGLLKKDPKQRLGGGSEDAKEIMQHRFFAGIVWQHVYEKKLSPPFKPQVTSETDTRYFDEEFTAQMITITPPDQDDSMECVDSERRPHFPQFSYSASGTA
Chain of Tyrosine-protein kinase Yes (Homo sapiens) (P07947 2-543 limits assumed): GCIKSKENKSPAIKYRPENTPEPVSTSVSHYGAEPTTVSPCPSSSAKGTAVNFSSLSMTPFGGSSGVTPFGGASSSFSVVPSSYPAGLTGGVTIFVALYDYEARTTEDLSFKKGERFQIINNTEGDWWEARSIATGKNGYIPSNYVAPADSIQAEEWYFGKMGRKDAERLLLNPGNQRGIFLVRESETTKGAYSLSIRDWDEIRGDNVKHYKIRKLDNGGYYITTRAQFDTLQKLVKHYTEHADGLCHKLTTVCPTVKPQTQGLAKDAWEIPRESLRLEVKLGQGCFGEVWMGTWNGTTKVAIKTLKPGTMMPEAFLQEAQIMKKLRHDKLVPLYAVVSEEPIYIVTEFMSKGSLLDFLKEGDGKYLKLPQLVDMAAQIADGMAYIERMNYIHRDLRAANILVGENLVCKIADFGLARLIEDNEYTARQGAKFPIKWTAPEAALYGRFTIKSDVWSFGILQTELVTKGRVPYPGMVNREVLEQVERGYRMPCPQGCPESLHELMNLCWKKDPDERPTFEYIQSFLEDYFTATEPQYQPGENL
Chain of Vascular endothelial growth factor receptor 1 (Homo sapiens) (P17948 whole entry): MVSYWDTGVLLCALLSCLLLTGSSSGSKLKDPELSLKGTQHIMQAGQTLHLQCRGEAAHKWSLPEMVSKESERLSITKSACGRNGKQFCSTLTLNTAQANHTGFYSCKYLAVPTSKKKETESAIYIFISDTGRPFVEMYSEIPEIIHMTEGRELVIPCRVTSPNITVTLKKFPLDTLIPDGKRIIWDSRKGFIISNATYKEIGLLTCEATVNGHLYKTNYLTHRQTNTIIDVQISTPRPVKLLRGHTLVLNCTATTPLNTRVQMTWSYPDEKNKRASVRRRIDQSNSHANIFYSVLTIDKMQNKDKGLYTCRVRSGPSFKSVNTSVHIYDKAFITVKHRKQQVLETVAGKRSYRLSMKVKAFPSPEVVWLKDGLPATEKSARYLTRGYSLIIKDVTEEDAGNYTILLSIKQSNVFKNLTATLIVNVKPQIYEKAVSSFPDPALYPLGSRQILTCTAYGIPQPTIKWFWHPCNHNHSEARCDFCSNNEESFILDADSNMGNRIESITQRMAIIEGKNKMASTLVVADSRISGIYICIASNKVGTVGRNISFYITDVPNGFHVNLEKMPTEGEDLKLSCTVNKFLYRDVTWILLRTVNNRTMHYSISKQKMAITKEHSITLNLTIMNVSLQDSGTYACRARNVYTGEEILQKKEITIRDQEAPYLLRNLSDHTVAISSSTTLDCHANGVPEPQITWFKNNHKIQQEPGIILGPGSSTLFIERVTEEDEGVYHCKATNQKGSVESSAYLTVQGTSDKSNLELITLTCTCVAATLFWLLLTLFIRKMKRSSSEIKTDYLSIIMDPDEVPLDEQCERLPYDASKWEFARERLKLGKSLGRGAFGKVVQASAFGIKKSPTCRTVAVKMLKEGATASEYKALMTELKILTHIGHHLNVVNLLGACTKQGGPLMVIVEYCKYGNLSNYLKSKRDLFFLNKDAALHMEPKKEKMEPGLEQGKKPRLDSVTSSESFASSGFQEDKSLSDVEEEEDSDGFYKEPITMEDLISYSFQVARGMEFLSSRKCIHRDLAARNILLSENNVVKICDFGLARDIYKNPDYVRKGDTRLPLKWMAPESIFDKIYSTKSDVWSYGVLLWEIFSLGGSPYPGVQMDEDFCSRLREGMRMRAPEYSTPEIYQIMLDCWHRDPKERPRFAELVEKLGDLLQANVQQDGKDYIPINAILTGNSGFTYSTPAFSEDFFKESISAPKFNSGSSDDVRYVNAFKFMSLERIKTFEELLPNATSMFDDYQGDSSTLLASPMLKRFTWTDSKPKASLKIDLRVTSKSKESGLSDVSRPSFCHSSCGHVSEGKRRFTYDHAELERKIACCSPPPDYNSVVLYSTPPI
Chain of Mitogen-activated protein kinase 11 (Homo sapiens) (Q15759 whole entry): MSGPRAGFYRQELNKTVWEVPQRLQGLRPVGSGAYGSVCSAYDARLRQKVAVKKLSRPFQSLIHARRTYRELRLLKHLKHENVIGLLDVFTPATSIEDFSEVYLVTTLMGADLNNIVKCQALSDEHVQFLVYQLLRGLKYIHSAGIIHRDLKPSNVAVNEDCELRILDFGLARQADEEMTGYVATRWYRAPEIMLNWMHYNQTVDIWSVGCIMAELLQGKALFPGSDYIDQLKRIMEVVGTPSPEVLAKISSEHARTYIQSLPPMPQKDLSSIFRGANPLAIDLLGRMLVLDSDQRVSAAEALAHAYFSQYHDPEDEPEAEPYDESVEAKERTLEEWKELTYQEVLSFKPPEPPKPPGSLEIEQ

inhibition [1] | inhibition [2] | inhibition [3] | inhibition [4] | inhibition [5] | inhibition [6] | inhibition [7] | inhibition [8] | inhibition [9] | inhibition [10] | inhibition [11] | Structure (SMILES)
3% | 2% | 25% | 7% | 1% | 10% | 9% | 2% | 2% | 3% | 0% | CCN(CC)CCCC(C)Nc1nc(N2Cc3ccccc3C2=O)nc2[nH]cnc12 (configuration not stated)
1% | 2% | 5% | 9% | 0% | 9% | 5% | 0% | 0% | 14% | 1% | O=C1c2ccccc2CN1c1nc(NC2CCCCC2)c2nc[nH]c2n1
3% | 2% | 62% | 9% | 1% | 13% | 38% | 0% | 2% | 68% | 1% | O=c1c2ccccc2[se]n1-c1nc(NC2CCCCC2)c2nc[nH]c2n1
4% | 0% | 62% | 7% | 2% | 9% | 9% | 1% | 1% | 8% | 0% | O=c1c2ccccc2[se]n1-c1nc(N[C@@H]2C[C@H]3CC[C@@H]2C3)c2nc[nH]c2n1
0% | 1% | 9% | 6% | 1% | 1% | 1% | 4% | 1% | 0% | 2% | O=C1c2ccccc2CN1c1nc(NC2CCCC2)c2nc[nH]c2n1
3% | 9% | 12% | 9% | 11% | 7% | 15% | 11% | 1% | 18% | 2% | CCN(CC)CCCC(C)Nc1nc(-n2[se]c3ccccc3c2=O)nc2[nH]cnc12 (configuration not stated)
4% | 0% | 5% | 7% | 1% | 11% | 7% | 1% | 1% | 10% | 1% | C[C@@H]1[C@H]2C[C@@H](C[C@H]1Nc1nc(-n3[se]c4ccccc4c3=O)nc3[nH]cnc13)C2(C)C
2% | 2% | 28% | 4% | 0% | 6% | 8% | 0% | 1% | 18% | 1% | O=c1c2ccccc2[se]n1-c1nc(Nc2ccccc2)c2nc[nH]c2n1

Structure (SMILES) | inhibition [1] | inhibition [2] | inhibition [3] | inhibition [4] | inhibition [5] | inhibition [6] | inhibition [7] | inhibition [8] | inhibition [9] | inhibition [10] | inhibition [11]
O=c1c2ccccc2[se]n1-c1nc(N[C@H]2CC[Se]C2)c2nc[nH]c2n1 | 9% | 0% | 8% | 12% | 1% | 0% | 10% | 6% | 0% | 100% | 0%
CCCNc1nc(-n2[se]c3ccccc3c2=O)nc2[nH]cnc12 | 4% | 2% | 95% | 3% | 0% | 6% | 3% | 0% | 0% | 17% | 1%
O=c1c2ccccc2[se]n1-c1nc(N[C@H]2CCOC2)c2nc[nH]c2n1 | 3% | 1% | 7% | 2% | 8% | 1% | 6% | 3% | 0% | 91% | 1%
O=C1c2ccccc2CN1c1nc(N[C@H]2CC[Se]C2)c2nc[nH]c2n1 | 3% | 1% | 9% | 6% | 0% | 13% | 12% | 3% | 1% | 3% | 0%
